Test results published in patent US8957062B2, “Substituted cyclopropyl compounds, compositions containing such compounds and methods of treatment” (Merck Sharp & Dohme Corp., priority 2011, dated 2015).

Target: T1, human GPR119 (Homo sapiens, UniProt Q8TDV5)
T1 sequence (Q8TDV5 1-308 limits assumed): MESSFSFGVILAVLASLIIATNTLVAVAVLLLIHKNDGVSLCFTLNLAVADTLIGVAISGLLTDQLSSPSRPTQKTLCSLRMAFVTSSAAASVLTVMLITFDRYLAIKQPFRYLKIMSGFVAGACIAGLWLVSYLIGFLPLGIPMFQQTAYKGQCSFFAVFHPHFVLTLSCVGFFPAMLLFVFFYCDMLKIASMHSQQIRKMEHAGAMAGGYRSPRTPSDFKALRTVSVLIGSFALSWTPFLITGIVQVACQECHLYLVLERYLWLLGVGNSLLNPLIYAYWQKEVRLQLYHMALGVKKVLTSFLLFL
Assay: Measurement of GPR119 signaling (cAMP assay) in cells stably transfected with human GPR119
Assay type: cell-based
Conditions: stated in the example text; cAMP stimulation, human GPR119; read-out: GPR119 Human EC50

For `COCc1noc(N2CCC([C@H]3C[C@H]3CCOc3ccc(S(C)(=O)=O)cn3)CC2)n1` [Example 208, 3-(methoxymethyl)-5-(4-((1R,2S)-2-(2-(5-(methylsulfonyl)pyridin-2-yloxy)ethyl)cyclopropyl)piperidin-1-yl)-1,2,4-oxadiazole], which EC50 is on record?
Its EC50 is 7 nM.

With `CCCCc1nnc(N2CCC([C@H]3C[C@H]3CCOc3ccc(S(C)(=O)=O)cn3)CC2)o1` [Example 247, 2-(2-{(1S,2R)-2-[1-(5-butyl-1,3,4-oxidiazol-2-yl)piperidin-4-yl]cyclopropyl}ethoxy)-5-(methylsulfonyl)pyridine] as the molecule, how does the EC50 read?
Its EC50 is 28 nM.

Which EC50 does the source give for `O=C(c1c(F)cc(OCC[C@@H]2C[C@@H]2C2CCN(c3nc4ncccn4n3)CC2)cc1F)C1CC1` [Example 251] here?
Its EC50 is 6 nM.

Which EC50 does the source give for `CC(C)c1nc(N2CCC([C@H]3C[C@H]3CCOc3ccc(CC(=O)N4CC(O)C4)c(F)c3)CC2)no1` [Example 255, 1-[(2-fluoro-4-{2-[(1S,2R)-2-{1-(5-isopropyl-1,2,4-oxadiazol-3-yl)piperidin-4-yl}cyclopropyl]ethoxy}phenyl)acetyl]azetidin-3-ol] here?
Its EC50 is 1.6 nM.

Which EC50 does the source give for `CC(C)c1noc(N2CCC([C@H]3C[C@H]3CCOc3ccc(Cc4nnco4)c(F)c3)CC2)n1` [Example 256, 4-((1R,2S)-2-{2-[3-fluoro-4-(1,3,4-oxadiazol-2-ylmethyl)phenoxy]ethyl}cyclopropyl)-1-(3-isopropyl-1,2,4-oxadiazol-5-yl)piperidine] here?
The EC50 was 2.5 nM.

Which EC50 does the source give for `Cc1cc(CC(=O)N2CC(F)C2)cnc1OCC[C@@H]1C[C@@H]1C1CCN(c2nc(C(C)C)no2)CC1` [Example 258, 5-[2-(3-fluoroazetidin-1-yl)-2-oxoethyl]-2-(2-{(1S,2R)-2-[1-(3-isopropyl-1,2,4-oxadiazol-5-yl)piperidin-4-yl]cyclopropyl}ethoxy)-3-methylpyridine] here?
The EC50 was 8 nM.

Same assay, conditions: table column; cAMP stimulation, human GPR119; read-out: GPR119 Human EC50

For `CS(=O)(=O)c1ccc(OCC[C@@H]2C[C@@H]2C2CCN(c3nnc(C4CCC4)o3)CC2)nc1` [Example 248], which EC50 is on record?
Its EC50 is 39 nM.

With `CS(=O)(=O)c1ccc(OCC[C@@H]2C[C@@H]2C2CCN(c3nnc(C4CCCC4)o3)CC2)nc1` [Example 249] as the molecule, how does the EC50 read?
Its EC50 is 32 nM.

For `CS(=O)(=O)c1ccc(OCC[C@@H]2C[C@@H]2C2CCN(c3nnc(-c4ccccc4)o3)CC2)nc1` [Example 250], which EC50 is on record?
The EC50 was 49 nM.

For `O=C(c1c(F)cc(OCC[C@@H]2C[C@@H]2C2CCN(c3nc4cnccn4n3)CC2)cc1F)C1CC1` [Example 252], which EC50 is on record?
Its EC50 is 4.1 nM.

For `O=C(c1c(F)cc(OCC[C@@H]2C[C@@H]2C2CCN(c3nnc4ncccn34)CC2)cc1F)C1CC1` [Example 253], which EC50 is on record?
Its EC50 is 3 nM.

For `Cc1nc(C#N)cc(OCC[C@@H]2C[C@@H]2C2CCN(c3nnc4ncccn34)CC2)n1` [Example 254], which EC50 is on record?
The EC50 was 25 nM.

For `CC(C)c1noc(N2CCC([C@H]3C[C@H]3CCOc3ccc(Cc4nncs4)c(F)c3)CC2)n1` [Example 257], which EC50 is on record?
Its EC50 is 1.4 nM.

With `Cc1cc(CC(=O)N2CCC(C)CC2)cnc1OCC[C@@H]1C[C@@H]1C1CCN(c2nc(C(C)C)no2)CC1` [Example 259] as the molecule, how does the EC50 read?
The EC50 was 18 nM.

For `Cc1cc(CC(=O)N2CC(F)(F)C2)cnc1OCC[C@@H]1C[C@@H]1C1CCN(c2nc(C(C)C)no2)CC1` [Example 260], which EC50 is on record?
Its EC50 is 3.8 nM.

Which EC50 does the source give for `COC1CN(C(=O)Cc2cnc(OCC[C@@H]3C[C@@H]3C3CCN(c4nc(C(C)C)no4)CC3)c(C)c2)C1` [Example 261] here?
Its EC50 is 19 nM.

Which EC50 does the source give for `Cc1cc(CC(=O)N2CC(C)(O)C2)cnc1OCC[C@@H]1C[C@@H]1C1CCN(c2nc(C(C)C)no2)CC1` [Example 262] here?
Its EC50 is 12 nM.

Which EC50 does the source give for `Cc1cc(CC(=O)N(C)C)cnc1OCC[C@@H]1C[C@@H]1C1CCN(c2nc(C(C)C)no2)CC1` [Example 263] here?
Its EC50 is 14 nM.

For `Cc1cc(CC(=O)N(C)C2CCS(=O)(=O)C2)cnc1OCC[C@@H]1C[C@@H]1C1CCN(c2nc(C(C)C)no2)CC1` (some centres unmarked) [Example 264], which EC50 is on record?
Its EC50 is 11 nM.

Tested on: not given
Assay: not given
Conditions: not given

With `COCc1noc(N2CCC([C@H]3C[C@H]3CCOc3ccc(S(C)(=O)=O)cn3)CC2)n1` [Example 208, 3-(methoxymethyl)-5-(4-((1R,2S)-2-(2-(5-(methylsulfonyl)pyridin-2-yloxy)ethyl)cyclopropyl)piperidin-1-yl)-1,2,4-oxadiazole] as the molecule, how does the melting point read?
Its melting point is 68 to 70 °C.
